In PMC7352507, “The Genome Analysis of Methylobacterium populi YC-XJ1 with Diverse Xenobiotics Biodegrading Capacity and Degradation Characteristics of Related Hydrolase” (International Journal of Molecular Sciences, 2020):

Columns and labels:
QPEH2 = test system: T1, QPEH2; assay: HPLC of residual substrate, Lineweaver-Burk; format: biochemical, Methylorubrum populi; conditions: 10 mM PBS pH 7.0, 25 °C; 120 µg enzyme; QPE 0.2-2.4 mM
T1 construct: full length, 367 aa, 39,840 Da, no signal peptide; pET-32a(+) BamHI/HindIII, fused tags (His/S stated; about 45 kDa on SDS-PAGE) kept; E. coli

DEPH1 = test system: T2, DEPH1; assay: residual substrate (HPLC or GC), Lineweaver-Burk; format: biochemical, Methylorubrum populi; conditions: 10 mM PBS pH 7.0, 25 °C; 500 µg enzyme; DEP 0.2-2.4 mM
T2 construct: full length, 280 aa, 29,714 Da, no signal peptide; pET-32a(+) BamHI/HindIII, Trx/His/S tags kept (about 48 kDa on SDS-PAGE); E. coli

Km (QPEH2) [µM]	SMILES	Km (DEPH1) [µM]
83.9 ± 30.3	CCOC(=O)[C@@H](C)Oc1ccc(Oc2cnc3cc(Cl)ccc3n2)cc1 [quizalofop-p-ethyl]	
	CCOC(=O)c1ccccc1C(=O)OCC [diethyl phthalate]	1040 ± 270
